Reference: patent publication US20230190743A1, “TREATMENT WITH ILEAL BILE ACID TRANSPORTER (IBAT) INHIBITORS FOR INCREASED EVENT-FREE SURVIVAL (EFS)” (Mirum Pharmaceuticals, Inc., priority 2021, published 2023)
Values joined by “and” are separate entries in the source; they are usually repeats but may differ in a detail not shown here. Equal entries are not always repeated.

How the values were obtained:
Format in all cases: in vivo, human
[1] = test system: patients with PFIC due to BSEP deficiency (nontruncated BSEP mutation); test: INDIGO long-term study, sBA control after >4.5 years of MRX
From the text: Maralixibat (MRX) is an ileal bile acid transport (IBAT) inhibitor approved for the treatment of pruritus in patients with Alagille syndrome aged 1 year and older and under evaluation in patients with PFIC.

patients with ALGS = test: Phase 2 ICONIC trial, 48-week HRQoL analysis by ItchRO treatment response; set-up: key to Beta, ItchRO treatment response at week 48 Yes vs No, PedsQL Generic Core Scale / Beta, ItchRO treatment response at week 48 Yes vs No, Family Impact Scale / Beta, ItchRO treatment response at week 48 Yes vs No, Multidimensional Fatigue Scale: regression beta in HRQoL score points (0-100 scale), responders vs not
Procedure: A retrospective analysis was performed of 48-week data from the Phase 2 ICONIC trial, a study with a 4-week double-blind, placebo-controlled, randomized drug withdrawal period in patients with ALGS. Patients had moderate to severe pruritus as measured using a validated caregiver-reported Itch Reported Outcome (ItchRO) severity assessment tool (0=none to 4=very severe). Clinically meaningful pruritus response was defined as a ≥1 point reduction in the ItchRO, from baseline to week 48. HRQoL was assessed using the Pediatric Quality of Life Inventory Generic Core (PedsQL; 0-100 scale, 100=best quality of life), Family Impact (FI), and Multidimensional Fatigue (MF) scale scores, and were collected via caregiver. The minimal clinically important difference (MCID) for the HRQoL assessments is 5 points. A subset of individual items from the HRQoL scales were also independently selected for assessment with treatment response. HRQoL scores and selected items were assessed at baseline and week 48 and stratified by treatment response status. P-values were calculated using t-tests or ANOVAs. Multivariate linear regression models were used to assess the relationship between the mean change from baseline in HRQoL score (dependent variable) and an indicator for treatment response (independent variable), adjusting for baseline HRQoL. Adjustment for additional baseline covariates was also explored for the following variables: age, gender, bilirubin, rifampicin use, height z-score, weight z-score, ItchRO, and serum bile acid.

[2] = test system: patients with PFIC due to BSEP deficiency; test: Longitudinal serum bile acid profiling by UHPLC-MS/MS in INDIGO patients
Procedure: Total and individual serum BAs (sBA) including the major sub-species of TCA, TUDCA, TCDCA, TDCA, TLCA, GCA, GUDCA, GCDCA, GDCA, GLCA, CA, UDCA, CDCA, DCA, LCA and 7α-hydroxy-4-cholesten-3-one (sterol-C4), a surrogate marker for BA synthesis, were measured using a validated ultraperformance liquid chromatography coupled with tandem mass spectrometry (UHPLC-MS/MS) assay. The internal standards, a cocktail of deuterium labeled standards were added to serum, calibrators and QC samples. sBA were extracted and separated on a Kinetex C18 (2.6 μm, 100×3.0 mm) column (Phenomenex, Torrance, Calif.) with gradient elution. Quantification of individual sBA was achieved by multiple reaction monitoring (MRM) of selected transitions. Total C24 bile acid concentrations were calculated from the sum of individual species. These assays were applied to the analysis of serum from 19 patients with genetically confirmed PFIC due to BSEP deficiency (open-label phase 2 INDIGO trial; NCT02057718) treated with MRX. Changes in the composition of sBA associated with pruritus improvement measured with the Itch Reported Outcome Observer (ItchRO[Obs]) score were monitored at intervals over 72 weeks, with pruritus responders, defined as >1 scale reduction, compared with nonresponders. Linear mixed model framework was also used to model longitudinal profiles of sBA and pruritus reduction over time.

[3] = patients with sBA control, to Week 237, p<0.05

## CCCCC1(CCCC)CS(=O)(=O)c2ccc(N(C)C)cc2[C@@H](c2ccc(OCc3ccc(C[N+]45CCN(CC4)CC5)cc3)cc2)[C@H]1O [maralixibat]
[1]; after >4.5 years of MRX, result in words
  listing for liver transplant: No ongoing patients were listed for liver transplant
[1]; most frequent TEAEs mild to moderate, result in words
  long-term safety and tolerability: safe and well tolerated
[1]; of n=19 with nontruncated BSEP mutation, sBA threshold ≤100 μmol/L
  patients who achieved sBA control and remained on-study as of Week 237: 7 patients
[1]; p<0.001, result in words
  pruritus: improved significantly
[1]; p<0.01, result in words
  Growth (height z-score): improved significantly
[1]; patients who achieved control of sBA during MRX treatment
  native liver survival: > 4.5 years
[1]; patients with sBA control, Week 237, vs. 299.6 μmol/L at baseline
  mean sBA value: 44.2 (38.8) μmol/L
[1]; patients with sBA control, Week 237, vs. 0.6 at BL
  mean direct bilirubin value: 0.1 mg/dL
[1]; patients with sBA control, Week 237, vs. 0.8 at BL
  mean total bilirubin value: 0.7 mg/dL
[1]; patients with sBA control, Week 237, vs. 57.9 at BL
  mean ALT value: 16.7 U/L
[1]; patients with sBA control, Week 237, vs. 62.1 at BL
  mean AST value: 26.7 U/L
[1]; [3]
  Mean (SE) sBA reduction: 234.4 (80.5) μmol/L
  Mean reduction in ALT: 41.1 (14.3) U/L
  Mean reduction in AST: 35.4 (11.5) U/L
[1]; patients with sBA control, to Week 237, p=0.13
  Mean reduction in direct bilirubin: 0.4 (0.2) mg/dL
[1]; patients with sBA control, to Week 237, p=0.8
  Mean reduction in total bilirubin: 0.1 (0.3) mg/dL
[1]; result in words
  bilirubin in those with abnormal bilirubin: normalized
Patients with ALGS; ItchRO Non-Responders
  HRQoL at Week 48 (mean ± SD), Family Impact Scale: 54.7 ± 20.0
  HRQoL at Week 48 (mean ± SD), Multidimensional Fatigue Scale: 64.2 ± 15.1
  HRQoL at Week 48 (mean ± SD), PedsQL Generic Core Scale: 62.4 ± 14.5
  HRQoL change from baseline to Week 48 (mean ± SD), Family Impact Scale: 3.9 ± 7.8
  HRQoL change from baseline to Week 48 (mean ± SD), Multidimensional Fatigue Scale: −3.1 ± 19.8
  HRQoL change from baseline to Week 48 (mean ± SD), PedsQL Generic Core Scale: 1.2 ± 11.1
Patients with ALGS; ItchRO Responders
  HRQoL at Week 48 (mean ± SD), Family Impact Scale: 73.9 ± 19.6
  HRQoL at Week 48 (mean ± SD), Multidimensional Fatigue Scale: 76.2 ± 15.1
  HRQoL at Week 48 (mean ± SD), PedsQL Generic Core Scale: 70.4 ± 15.7
  HRQoL change from baseline to Week 48 (mean ± SD), Family Impact Scale: 17.8 ± 23.4
  HRQoL change from baseline to Week 48 (mean ± SD), Multidimensional Fatigue Scale: 25.8 ±23.0
  HRQoL change from baseline to Week 48 (mean ± SD), PedsQL Generic Core Scale: 11.6 ± 20.3
Patients with ALGS; multivariate regression, adjusted for baseline HRQoL, N = 21, CI −2.49, 30.32
  Beta, ItchRO treatment response at week 48 Yes vs No, Multidimensional Fatigue Scale: 13.92
Patients with ALGS; multivariate regression, adjusted for baseline HRQoL, N = 26, CI 1.01, 32.68
  Beta, ItchRO treatment response at week 48 Yes vs No, Family Impact Scale: 16.85
Patients with ALGS; multivariate regression, adjusted for baseline HRQoL, N = 27, CI −3.86, 21.38
  Beta, ItchRO treatment response at week 48 Yes vs No, PedsQL Generic Core Scale: 8.76
Patients with ALGS; non-responders, result in words
  HRQoL change from baseline to week 48 across all scales: No clinically meaningful change
Patients with ALGS; over the 48 weeks, controlling for baseline FI score
  average increase of Family Impact score, responders compared with non-responders: 17 points and 16.9 points
Patients with ALGS; over the 48 weeks, p=0.11
  average increase of Multidimensional Fatigue total score, responders compared with non-responders: 13.9 points
Patients with ALGS; over the 48 weeks, p=0.19
  average increase of PedsQL Generic Core Total Scale Score, responders compared with non-responders: 8.8 points
Patients with ALGS; responders vs non-responders
  Difference in change from baseline to week 48, HRQoL item Difficulty steeping through the night: 52.9
  Difference in change from baseline to week 48, HRQoL item Feeling tired: 40.1
  Difference in change from baseline to week 48, HRQoL item Feeling tired upon waking: 72.4
  Difference in change from baseline to week 48, HRQoL item Steeping a lot: 55.2
  Difference in change from baseline to week 48, HRQoL item Taking a lot of naps: 40.4
  Difference in change from baseline to week 48, HRQoL item Trouble sleeping: 45.4
Patients with ALGS; result in words
  pruritus at week 48 of the ICONIC study: significant improvements in pruritus
Patients with ALGS; week 48, 27 patients
  patients who achieved ItchRO treatment response (≥1 point reduction): 74%
[2]; longitudinal data, p<0.05, result in words
  reduction from baseline in total sBA, pruritus responders vs nonresponders: significantly greater
[2]; of the 19 patients, over 72 weeks
  patients who met the pruritus-response criteria (>1 scale reduction ItchRO[Obs]): 11 patients
[2]; pruritus nonresponders, p=0.09
  proportion of unconjugated BA: 0.61±0.24%
[2]; pruritus responders
  proportion of unconjugated BA: 9.84±4.87%
